How the values were obtained:
[1] = system: Ankylosing spondylitis in HLA B27 Tg rat; assay: HLA-B27/Huβ2m transgenic rat model of ankylosing spondylitis
Source text: Etanercept and tofactinib (Balagué et al. Profiling of dihydroorotate dehydrogenase, p38 and JAK inhibitors in the rat adjuvant-induced arthritis model: a translational study. Br J Pharmacol. 2012 June; 166(4):1320-32) were included in this rat study as comparator molecules.

[2] = plasma exposure in HLA-B27/Huβ2m rats; conditions: 10 mg/kg daily oral (comparator)
Source text: In each disease model, steady-state pharmacokinetics were characterized.

Row | Compound | Paw Swelling Inhibition (%) ([1]; 10 mg/kg daily oral gavage (comparator)) | AUCLST [2] [ng·h/mL] | Paw Swelling Inhibition (%) ([1]; 10 mg/kg twice weekly subcutaneous injection (comparator))
1 | C[C@@H]1CCN(C(=O)CC#N)C[C@@H]1N(C)c1ncnc2[nH]ccc12 [Tofacitinib, tofacitinib, reference compound] | 47 | 6540 | –
2 | Etanercept | – | – | 42

Source: US20220251105A1, “METHODS OF TREATING A MK2-MEDIATED DISORDER” (Celgene CAR LLC, priority 2019, published 2022)
